Assay results from patent US20240423941A1, “MEDIUM CHAIN DICARBOXYLIC ACIDS FOR THE TREATMENT AND PREVENTION OF DISEASES AND CONDITIONS” (University of Pittsburgh - Of the Commonwealth System of …, priority 2021, published 2024).
Entries after “also recorded” stand apart in the source; their conditions may differ.

Experiments:
ischemic AKI = assay: Unilateral ischemic kidney injury (ischemic AKI); assay type: in vivo, male mice; conditions: for BUN / kidney damage by H & E staining (dilated tubules, proteinaceous casts) / serum creatinine: diet-fed versus normal diet; for expression of the injury marker NGAL in proximal tubules: immunostaining
From the text: FIG. 3. DC12 treatment mitigates ischemic kidney injury. Normal diet or DC12-fed male mice were subjected to ischemic AKI. […] Tubular dilation (arrows), debris, or proteinaceous casts are indicated (*). […] E,F) DC12-fed mice had lower serum creatinine and BUN, which are markers of kidney dysfunction. *p<0.05.
FIGS. 7A-7F. […] Normal diet or DC8-fed male mice were subjected to ischemic AKI. […] Tubular dilation (arrows), debris, or proteinaceous casts are indicated (*). […] FIGS. 7E,7F) DC8-fed mice had lower serum creatinine and BUN, which are markers of kidney dysfunction. ****p<0.0001.
DC12 is renoprotective. […] To test this, mice that had been fed ±10% DC12 for 7 days were subjected to unilateral ischemic kidney injury. In this model, the uninjured contralateral kidney is removed on Day 6 post-injury and used as control tissue, and the injured kidneys are collected one day later for analysis. The diet was continued during the 6-day recovery period post-injury, as well as after removing the contralateral kidney.
(§1) The effect of DC8 in ischemic AKI was also tested.

[1] = system: lysine succinylation (Suc-Lys) PTMs; assay: Western blotting of lysine succinylation in tissues of mice fed dicarboxylic acids; assay type: in vivo, wildtype C57Bl/6 mice; conditions: for lysine succinylation (Suc-Lys) PTMs in kidney / lysine succinylation (Suc-Lys) PTMs in liver: fed 10% w/w for 7 days
From the text: FIGS. 1A-1C. Feeding mice DCAs causes a dramatic shift in the post-translational modification (PTM) landscape. […] ND=normal diet. FIG. 1B) Mice were fed 10% DC12 for 0 to 7 days; some mice underwent a 7-day “washout” after 7 days on DC12.
FIG. 6. DC8 causes robust kidney specific succinylation. DC8, DC10 and DC12 were fed to wild-type mice at 10% w/w for 7 days.
(§2) We hypothesized that peroxisomes can chain-shorten DC12 as far as DC4-CoA, also known as succinyl-CoA. Such a mechanism would be predicted to 1) result in protein succinylation in the peroxisome, due to the known high chemical reactivity between lysine residues and succinyl-CoA; and 2) “feed” the mitochondrial TCA cycle with the products of DC12 chain-shortening, namely 2-carbon units (acetate) and succinate. We fed wildtype C57Bl/6 mice DC12 mixed into the diet and measured protein succinylation as a proxy for succinyl-CoA formation. […] The succinylation is seen to arise within 1 day and becomes maximal at 7 days (FIG. 1B). The effect is reversible when the diet is removed. DC12 degradation also produces acetyl-CoA. […] Like succinyl-CoA, glutaryl-CoA (DC5-CoA) is also highly reactive.
DC8 induces high-level, kidney-specific protein succinylation. […] Potential side effects caused by liver metabolization can be avoided, and the liver is not reducing the available agent.

[2] = system: unilateral ureteral obstruction (UUO); assay: Unilateral ureteral obstruction (UUO) model of interstitial fibrosis; assay type: in vivo; conditions: DC8 fed versus control fed diet
From the text: FIG. 14. DC8 treatment was also protective against a chronic kidney disease model of interstitial fibrosis. As was evidenced in the control fed diet 14A and A′ when the kidney was subjected to unilateral ureteral obstruction (UUO) that there was a significant amount of trichrome positive fibrosis in the interstitium (blue).

[3] = system: long-chain acyl-CoA dehydrogenase (LCAD) knockout mice; assay: LCAD knockout mice, model of mitochondrial long-chain fatty acid oxidation disorders; assay type: in vivo
From the text: FIG. 11A-11E. DC12 and DC10 improve functioning in long-chain acyl-CoA dehydrogenase (LCAD) knockout mice, a mouse model of mitochondrial long-chain fatty acid oxidation disorders.

metformin overdose = assay: Metformin overdose (lactic acidosis); assay type: in vivo, mice
Method: (§3) FIGS. 10A-10D. DC12 protects against lactic acidosis. Wildtype mice were maintained on DC12 diet for 7 days, then run on a treadmill to exhaustion. […] Then, mice fed DC12 were tested for protection against metformin overdose, which is clinically known to induce a lethal lactic acidosis. After a single 400 mg/kg dose of metformin, 9/11 mice on control diet died, while 0/12 mice on DC12 diet died (FIG. 10B).

[4] = Indirect calorimetry (CLAMS) in DC12-fed mice; assay type: in vivo
From the text: FIGS. 9A-9D. DC12 increases whole-body energy expenditure and respiratory exchange ratio. Indirect calorimetry indicated increased whole-body respiration as measured in the CLAMS apparatus over 72 hrs, for both oxygen consumed (FIG. 9A) and carbon dioxide produced (FIG. 9B). […] The calculated energy expenditure in the DC12 group was higher (FIG. 9D).

protein acetylation = assay: Protein acetylation with pan anti-acetyllysine antibody in DC12-fed mice; assay type: in vivo
From the text: as §2

cisplatin kidney injury = assay: Nephrotoxic (cisplatin) model of AKI; assay type: in vivo, male 129 WT mice
Method: FIGS. 5A-5B. DC12 treatment mitigates cisplatin kidney injury. Normal diet or DC12-fed (7 days pre-treatment+3 days post-treatment) male 129 WT mice were injected i.p. with 18 mg/kg cisplatin and sacrificed at day 3. (FIG. 5A) Reduction of serum bicarbonate by cisplatin-AKI was mitigated in DC12 treated mice. (FIG. 5B) Renal tubular injury by cisplatin is mitigated in DC12 treated mice. Magnified images for dotted boxed areas are shown. Tubular dilation, debris, or proteinaceous casts are indicated(*) n=6-7, mean±SEM, t-test, *p<0.05, Scale bars: 50 um
We also conducted a nephrotoxic model of AKI (cisplatin).
as §1

[5] = Body weight, food intake, grip strength and body composition (EchoMRI) in DC12-fed mice; assay type: in vivo
Method: FIGS. 8A-8G. […] FIG. 8A, 8B) Mice were fed DC12 for 5 weeks. Body weight and food weights were measured 3 times per week. […] Forelimb peak force was measured with a grip strength meter and normalized to body weight.

[6] = system: lysine succinylation PTMs in kidney; assay: Quantitative mass spectrometry of contralateral and injured kidneys (AKI ± DC12); assay type: in vivo, mice
From the text: FIGS. 4A-4C. Effects of injury and DC12 on protein succinylation PTMs. N=4 mice were subjected to AKI±7 days of 10% DC12. Contralateral (non-injured kidneys) served as control. Quantitative mass spectrometry was used to profile lysine succinylation PTMs at the protein and site-level. […] FIG. 4C) Succinylation of individual lysine-containing peptides from four key peroxisomal proteins, normalized to control diet non-injured levels.
Portions of contralateral control kidney and injured kidney were used for quantitative mass spectrometry, to measure both total protein abundance and site-level changes in lysine succinylation.

[7] = system: lysine succinylation in liver peroxisomes; assay: Lysine succinylation in liver peroxisomes and homogenates of WT versus Sirt5KO mice fed DC12; assay type: in vivo
From the text: FIGS. 2A-2C. […] FIG. 2A) Livers from N=3 mice fed DC12 for 7 days, separated by Histodenz gradient centrifugation to yield pure peroxisomes and blotted with anti-succinyllysine (SucLys). ND lanes=one control mouse of each genotype fed normal diet. Peroxisome fraction is positive for peroxisome marker PMP70 but negative for mitochondrial Tim23 except for WT sample #2 which had minor mitochondrial contamination. FIG. 2B) Densitometry from panel (FIG. 2A) showing total SucLys signal normalized to PMP70. FIG. 2C) Liver homogenates from normal diet (ND) and Sirt5KO mice (N=4) were subjected to quantitative site-level mass spectrometry for succinylated peptides. The Y-axis is Log 2 fold-change for each peptide relative to wild-type (WT) on ND. Each dot is an individual peptide.
An important question was whether Sirt5, a deacylase that can reverse succinylation and glutarylation, would offset and reverse the effects of feeding DCAs.

[8] = Treadmill run to exhaustion, blood lactate; assay type: in vivo, wildtype mice; conditions: DC12 diet for 7 days
Method: as §3

[9] = system: lysine glutarylation (Glu-Lys); assay: Western blotting of lysine glutarylation in mice fed DC11; assay type: in vivo; conditions: 10% w/w for 7 days

## O=C(O)CCCCCCC(=O)O [DC8, octanedioic acid]
Ischemic AKI; after ischemic injury
  kidney function: dramatically improved
Ischemic AKI
  BUN: lower
  kidney damage by H & E staining (dilated tubules, proteinaceous casts): reduced kidney damage; also recorded: marked reduction in kidney damage
  serum creatinine: lower
  expression of the injury marker NGAL in proximal tubules: markedly reduced
[1]; western blotting
  lysine succinylation (Suc-Lys) PTMs in kidney: dramatic increase; also recorded: stronger protein succinylation
  lysine succinylation (Suc-Lys) PTMs in liver: not the liver
[2]
  interstitial fibrosis (trichrome): dramatically decreased

## O=C(O)CCCCCCCCCCC(=O)O [DC12, dodecanedioic acid]
[3]; two weeks on 10% DC12 diet
  fasting glucose: improved
  forelimb grip strength: improved
  spontaneous locomotion: improved
  time spent resting: less
Metformin overdose; 2 hr post-metformin injection
  blood glucose levels relative to control: twice as high as control
  lactate levels, lower than control: 50%
Metformin overdose; single 400 mg/kg dose of metformin
  mice that died: 0/12
[4]; CLAMS over 72 hrs
  whole-body respiration, carbon dioxide produced: increased
  whole-body respiration, oxygen consumed: increased
[4]; dark period
  respiratory exchange ratio (RER): shift toward a higher RER
[4]; mouse, in vivo
  calculated energy expenditure: higher
Protein acetylation
  protein acetylation: no changes were observed
Cisplatin kidney injury; 18 mg/kg cisplatin i.p., day 3
  reduction of serum bicarbonate by cisplatin-AKI: mitigated; also recorded: improved functionality
  renal tubular injury by cisplatin (histology): mitigated; also recorded: less structural damage
Cisplatin kidney injury; mouse, in vivo
  protection against injury in cisplatin model: protected against injury
Ischemic AKI
  BUN: lower; also recorded: significantly reduced
  kidney damage by H & E staining (dilated tubules, proteinaceous casts): reduced kidney damage; also recorded: reduced the number of dilated tubules and proteinaceous casts
  serum creatinine: lower; also recorded: significantly reduced
  expression of the injury marker NGAL in proximal tubules: markedly reduced; also recorded: less induction
[5]; 5 weeks or 9 weeks, EchoMRI
  fat mass: reduces fat mass
  lean mass: not altering lean mass
[5]; at sacrifice
  liver fat (triacylglycerol, TAG): also reduced
  mass of the intra-abdominal fat pad (epididymal): significantly reduced
[5]; fed DC12 for 5 weeks
  body weight: reduced body weight
  food intake: without changing food intake
[5]; grip strength meter
  muscle strength (forelimb peak force normalized to body weight): does not reduce muscle strength
[1]; 7-day washout after 7 days on DC12
  reversibility of succinylation: reversible
[1]; 10% DC12 for 0 to 7 days
  time at which succinylation becomes maximal: 7 days
  time for succinylation to arise: ≤ 1 days
[1]; DC12 mixed into the diet, western blotting
  succinylation in muscle, heart, and brain: no change
[1]; western blotting
  lysine succinylation (Suc-Lys) PTMs in kidney: massive increase; also recorded: moderate increase; also recorded: massive upregulation
  lysine succinylation (Suc-Lys) PTMs in liver: massive increase; also recorded: large increase; also recorded: massive upregulation; also recorded: strongest protein succinylation
[6]; 7 days of 10% DC12, quantitative mass spectrometry
  lysine succinylation in kidney: massively increased; also recorded: massive effects
[6]; compared to baseline (contralateral)
  succinylation level of kidney peroxisomal proteins: greatly increased
[6]; total protein abundance, quantitative mass spectrometry
  protein expression in kidney: very minimal if any effect
[7]; 10% DC12 for 7 days, anti-succinyllysine blot
  lysine succinylation in liver peroxisomes, WT versus Sirt5-/-: equal lysine succinylation
[7]; liver, quantitative mass spectrometry
  succinylated peptides, fold-change relative to WT on normal diet: very high fold-changes in succinylation in both genotypes; also recorded: increases lysine succinylation dramatically
[8]
  blood lactate at exhaustion: significantly reduced

## O=C(O)CCCCCCCCCC(=O)O [DC11, undecanedioic acid]
[9]
  lysine glutarylation (Glu-Lys) in liver and kidney: massive increase; also recorded: high-level protein glutarylation

## O=C(O)CCCCCCCCC(=O)O [DC10, decanedioic acid]
[3]; single dose
  blood lactate after acute exercise stress test on a treadmill: significantly lowered
[1]; western blotting
  lysine succinylation (Suc-Lys) PTMs in kidney: large increase; also recorded: stronger protein succinylation
  lysine succinylation (Suc-Lys) PTMs in liver: moderate upregulation
